Measured values taken from patent publication US20130273003A1, “Therapies for Treating Hepatitis C Virus Infection” (priority 2012, published 2013).

What was measured:
[1] = system: hepatitis C virus (HCV) replicon; experiment: HCV Replicon Cell Assay; type: cell-based
Procedure: Cells containing hepatitis C virus (HCV) replicon were maintained in DMEM containing 10% fetal bovine serum (FBS), 0.25 mg per ml of G418, with appropriate supplements (media A).
On day 1, replicon cell monolayer was treated with a trypsin:EDTA mixture, removed, and then media A was diluted into a final concentration of 100,000 cells per ml wit. 10,000 cells in 100 μl were plated into each well of a 96-well tissue culture plate, and cultured overnight in a tissue culture incubator at 37° C.
On day 2, compounds (in 100% DMSO) were serially diluted into DMEM containing 2% FBS, 0.5% DMSO, with appropriate supplements (media B). The final concentration of DMSO was maintained at 0.5% throughout the dilution series.
Media on the replicon cell monolayer was removed, and then media B containing various concentrations of compounds was added. […]
A Taqman real-time RT-PCR quantification assay was set up with two sets of specific primers and probe. […] Total RNA extractants from treated HCV replicon cells was added to the PCR reactions for quantification of both HCV and BVDV RNA in the same PCR well. […] The level of HCV RNA in each well was calculated according to a standard curve run in the same PCR plate. The percentage of inhibition or decrease of HCV RNA level due to compound treatment was calculated using the DMSO or no compound control as 0% of inhibition. […]

[2] = system: genotype 1 HCV; experiment: ADVANCE trial: SVR rates, overall and by IL28B genotype; type: in vivo, Hepatitis C virus; conditions: for SVR rate: overall (full analysis population)
Procedure: IL28B genotype was determined in de-identified left-over specimens available from treatment-naïve genotype 1 HCV patients from ADVANCE U.S. sites. Due to the requirements of the de-identification procedure, only samples from Caucasian patients were tested. A series of associated clinical data was retained with the de-identified samples: HCV genotype, prior treatment response, assigned study arm, study completion, RVR, SVR, baseline viral load, EVR, undetectable at EOT.
IL28B genotyping was performed using 100 ng DNA from whole blood or peripheral blood mononuclear cell preparations with TaqMan® PCR, rs12979860 (ABI)

[3] = system: HCV; experiment: REALIZE trial: SVR by IL28B genotype in Peg-IFN/RBV experienced patients; type: in vivo, Hepatitis C virus; conditions: TVR 750 mg every 8 hours in combination with Peg-IFN/RBV, treatment-experienced patients
Procedure: This exploratory sub-analysis evaluated virologic response by IL28B genotype (rs12979860) in the Phase III TVR REALIZE trial. REALIZE is an international, multicentre, randomized, double-blind, placebo-controlled trial in Peg-IFN/RBV experienced patients; including prior relapsers, prior partial responders and prior null responders. Patients were included in this sub-analysis if they had consented to genetic testing.
FIG. 1 is a graphic depiction of the REALIZE study design. Drugs were administered in the following dosages: Peg-IFN alfa-2a=180 μg/week; RBV=1000-1200 mg/day; TVR=750 mg every 8 hours; Pbo=placebo. Overall, 527/662 (80%) patients enrolled in REALIZE consented to genetic testing; Data from T12/PR48 and T12(DS)/PR48 arms were pooled since no differences were observed between TVR arms. Randomization was stratified by viral load and prior response. Stopping rules were applied for TVR (Weeks 4, 6, and 8) and Peg-IFN/RBV (Weeks 12, 24, and 36).

SMILES: CCC[C@H](NC(=O)[C@@H]1[C@H]2CCC[C@H]2CN1C(=O)[C@@H](NC(=O)[C@@H](NC(=O)c1cnccn1)C1CCCCC1)C(C)(C)C)C(=O)C(=O)NC1CC1 [VX-950]
- activity in the replicon assay [1]: significant activity
- SVR rate ([2]; T8PR arm): 69%
- SVR rate ([2]; T12PR arm): 75%
- SVR ([2]; T12PR, IL28B CC): 90%
- patients receiving 24 weeks of total therapy ([2]; T12PR, IL28B CC): 78%
- SVR ([2]; T12PR, IL28B CT): 71%
- SVR ([2]; T12PR, IL28B TT): 73%
- RVR and eRVR rates compared to peginterferon alfa-2a/ribavirin alone ([2]; telaprevir-based regimen): improved RVR and eRVR rates across all IL28B genotypes
- achieved SVR ([2]; telaprevir-based regimen, eRVR, IL28B CC): 97%
- achieved SVR ([2]; telaprevir-based regimen, eRVR, IL28B CT): 88%
- achieved SVR ([2]; telaprevir-based regimen, eRVR, IL28B TT): 85%
- achieved SVR ([2]; telaprevir-based regimen, no eRVR, IL28B CC): 63%
- achieved SVR ([2]; telaprevir-based regimen, no eRVR, IL28B CT): 33%
- achieved SVR ([2]; telaprevir-based regimen, no eRVR, IL28B TT): 46%
- achieved SVR ([2]; telaprevir-based regimen, patients who did not have eRVR (48 weeks of therapy)): 43%
- achieved SVR ([2]; telaprevir-based regimen, patients who had eRVR (24 weeks of therapy)): 91%
- SVR rates versus Peg-IFN/RBV alone [3]: increased SVR rates across all IL28B genotypes
